Article PMC3774728, “Identification of the Plant Compound Geraniin as a Novel Hsp90 Inhibitor” (PLoS ONE, 2013)

Assays:
[1] = biological target: T1, Hsp90α chaperone activity (Homo sapiens, UniProt P07900); assay: Citrate synthase thermal-induced aggregation assay (chaperone activity); assay type: biochemical; conditions: 0.075 µM CS, 0.075 µM Hsp90α, 0.3 µM ATP, four-fold molar excess (0.3 µM) compound, 43°C
T1 construct: purchased Assay Designs (Ann Arbor, MI, USA)
Protocol: Chaperone activity was evaluated by monitoring the thermal−induced aggregation of citrate synthase (CS) (0.075 µM), as reported elsewhere, in the absence or presence of a stoichiometric amount of Hsp90α and 0.3 µM ATP, and with or without a four−fold molar excess of each testing compound. Aggregation was initiated by unfolding CS incubating the protein in 40 mM HEPES–KOH, pH 7.5 at 43°C. Aggregation was monitored by measuring light scattering at right angles with the Perkin Elmer LS 55 fluorimeter in stirred and thermostatted quartz cells. Both the emission and excitation wavelengths were set at 500 nm, while the band–pass was 2 nm. Kinetics traces reported are the averages of two separate measurements.
Figure 3 Inhibition of Hsp90α activity. ATPase activity of the chaperone was evaluated in the presence of different concentrations of geraniin, 17-AAG and HA (A). Data are reported as the residual ATPase activity (%) compared to that observed for an untreated sample. Data are the mean of three independent experiments performed in triplicate and were analyzed by t test (HA vs testing compounds): The error bar represents the standard deviation of nine measurements, while * indicates significance at P<0.01. Aggregation kinetics of citrate synthase (CS) at 43°C determined by light scattering (B). […]

[2] = tested on: PHA-stimulated proliferating PBMC; assay: Hypodiploidy/necrosis by flow cytometry, PHA-stimulated PBMC; assay type: cell-based, human; conditions: untreated cells 1.5±0.8%
Protocol: Jurkat and HeLa (epithelial carcinoma) cells, obtained from Cell Bank in GMP-IST (Genova, Italy) were maintained in RPMI 1640 medium or Dulbecco’s modified Eagle medium (DMEM), respectively, supplemented with 10% (v/v) FBS, 2 mM L−glutamine and antibiotics (100 U mL^−1 penicillin, 100 µg mL^−1 streptomycin) purchased from Invitrogen (Carslbad, CA, USA), at 37°C in humidified atmosphere with 5% CO2. To ensure logarithmic growth, cells were subcultured every two days. As control cells, human peripheral blood mononuclear cells (PBMC) were isolated from buffy coats of healthy donors (kindly provided by the Blood Center of the Hospital of Battipaglia, Salerno, Italy) by using standard Ficoll−Hypaque gradients. Freshly isolated PBMC contained 92.8±3.1% live cells. Proliferation of PBMC was induced by phytohemagglutinin (PHA) (10 µg mL^−1). […]
Cell DNA content was measured by propidium iodide (PI) incorporation into permeabilized cells, as described by Nicoletti et al.. […] The percentage of cells in the sub G0/G1 phase, apoptotic fraction, was quantified using CellQuest software (Becton Dickinson). The distribution of cells in G0/G1, S, G2/M phases was determined using ModFit LT cell cycle analysis software (Becton Dickinson). Results were expressed as a mean ± SD of three experiments performed in triplicate.

[3] = tested on: Hsp70, Hsp90 and Hsp90 client proteins in Jurkat cells; assay: Western blot of Hsp70 and Hsp90 client proteins, Jurkat; assay type: cell-based, human; conditions: 24 h
Protocol: Treated cells were harvested and disrupted by freeze−thawing in RIPA buffer (50 mM Hepes, 10 mM EDTA, 150 mM NaCl, 1% NP-40, 0.5% sodium deoxycholate, 0.1% SDS, pH 7.4), supplemented with protease inhibitors cocktail (Sigma-Aldrich). Cell debris was removed by centrifugation at 4°C and the supernatant protein concentration was determined, according to the Bio-Rad Protein assay (Biorad Laboratories, CA, USA). Total proteins (30 µg) were separated by SDS-PAGE under denatured reducing conditions. Separated proteins were then transferred to nitrocellulose membranes and blocked for 3 h with a solution containing 3% BSA in 50 mM Tris, 200 mM NaCl, 0.1% Tween 20, before incubation at 4°C overnight with the different primary antibodies (diluted 1∶1000) against specific proteins. After washing, the membranes were incubated with an appropriate peroxidase-conjugate secondary antibodies at room temperature (1 h). Immunoreactive protein bands were detected by enhanced chemiluminescence reagent (ECL, Rockford, USA), according to the manufacturer’s instructions. Quantitative densitometry analyses were performed using a Gel Doc 2000 system (Biorad Laboratories, CA, USA).
Figure 7 Effect of geraniin on Hsp90 client protein levels. Equal amounts (30 µg) of whole-cell lysates were separated on SDS-PAGE and client proteins were visualized by western blot analysis using specific antibodies. Actin was used as loading control. […] The blots shown are representative of three different experiments with similar results.

O=C1O[C@H]2[C@@H]3OC(=O)c4cc(O)c(O)c(O)c4-c4c(cc(O)c(O)c4O)C(=O)OC[C@H]2O[C@@H](OC(=O)c2cc(O)c(O)c(O)c2)[C@@H]3OC(=O)c2cc(O)c(O)c3c2[C@@H]2C1=CC(=O)[C@](O)(O3)C2(O)O [Compound 54, geraniin]
effect on citrate synthase aggregation kinetics in the presence of Hsp90α [1]: the curve slope clearly increased
levels of hypodiploidy/necrosis [2]: 2.6±1.3%
Hsp70 expression increase ([3]; 1 µM geraniin): 3.5±0.12 fold
level of Akt [3]: unaffected
level of the client proteins c-Raf, pAkt and EGFR ([3]; IC50 and lower and higher concentrations): dose-dependent decrease
